# Reference: US20100297079A1, “COMPOUNDS, COMPOSITIONS AND METHODS FOR TREATING VIRAL INFECTION” (Chimerix, Inc., priority 2009, published 2010)
# Read-outs that look alike come from different tables or passages of the source.
# Key:
# Assay type in all cases: cell-based
# [1] = Cytotoxicity (CC50) in parallel plates of the anti-HCV assay; settings: human
# Experimental: (§1) Antiviral activity against HCV is determined using the stably-expressing HCV replicon cell line, AVA5 (sub-genomic (CON1), genotype 1b) (Okuse, et al., Antivir. Res. 65:23 (2005); Korba, et al., Antivir. Res. 77:56 (2008); Blight, et al., Science 290:1972 (2000)). Reductions in intracellular HCV RNA are determined with respect to a cellular control (B-actin) by blot hybridization. Cytotoxicity is assessed by neutral red dye uptake in parallel plates.
# (§2) Efficacy and cell cytotoxicity values (EC50, EC90 and CC50) are calculated by linear regression analysis (MS EXCEL®, QuattroPro®) (Korba & Gerin, Antivir. Res. 19:55 (1992); Okuse, et al., Antivir. Res. 65:23 (2005)). The therapeutic index is calculated as CC50/EC50. Recombinant human interferon 2b (PBL laboratories, Inc.) is included as a positive control. Activity is subsequently tested against additional genotypes (e.g., genotype 1a) using the format described for the primary assay. In addition to antiviral assays described herein, several other types of anti-HCV activities can also be assessed using methods known to one of ordinary skill in the art.
# HCV = assay: Anti-HCV activity (HCV replicon assay); settings: Hepatitis C virus
# Experimental: as §1
# as §2, with “art. […]” for “art.”
# MT4 Cell Toxicity Assay = settings: human
# Experimental: Cells used: MT4 cells were obtained from NIH AIDS research & Reference Reagent Program. Cells were used up to passage 30.
# Toxicity assay using MTS: 5,000 MT4 cells were plated per well in a 96-well plate. Compounds were diluted in DMSO and further diluted with medium before adding to the plated cells. Plates were then incubated in a CO2 incubator at 37° C. for 6 days.
# Cell viability was estimated using MTS, a tetrazolium compound [3-(4,5-dimethylthiazol-2-yl)-5-(3-carboxymethoxyphenyl)-2-(4-sulfophenyl)-2H-tetrazolium], which is converted to a soluble formazan by mitochondrial dehydrogenases in the presence of an electron coupling reagent (phenazine methosulfate; PMS). The formazan product has an absorption maximum around 490 nm. Forty microliters of MTS reagent [MTS (2 mg/ml) and PMS (0.92 mg/ml) mixed at a ratio of 20:1 just before use] was added to each well and plates incubated for 4 hrs at 37° C. Absorbance was read at 490 nm using a Synergy 2 plate reader (BioTek). Data analysis was carried out using the BioTek Gen5 software using a 4-parameter curve fitting function to determine CC50 values.
# HepG2 cells = assay: Mitochondrial Biogenesis Assay; settings: 7 days, ratio of Complex IV to Frataxin
# Experimental: Cells used: HepG2 cells were obtained from ATCC. Cells are used up to 25 passages from the ATCC freeze.
# Mitochondria Biogenesis Assay using HepG2 cells: 150,000 HepG2 cells were plated per well in a 6-well plate. Compounds were diluted in DMSO and further diluted in the plated cells so as to give a top concentration of 50 μM. Five four-fold dilutions were tested in this assay format. Plates were then incubated in a CO2 incubator at 37° C. for 7 days. Medium containing fresh compound was changed on day 3 and 6 of the assay. Cells were harvested on day 7 of the assay.
# On day 7, cells were rinsed with 1×DPBS three times and scraped off into 1×DPBS and held on ice. Whole cell protein estimation was determined to make sure that the cells are suspended at a protein concentration of 3-5 mg/ml.
# Cells were lysed on ice by addition of 1:10 volume of diluted detergent (MitoSciences) so as to have a final detergent concentration of 2%. Cells were held on ice for 1 hr and then centrifuged at ˜20K×g for 20 min. The supernatant fraction was used for determining solubilized Frataxin and Complex IV using an ELISA kit from MitoSciences. The ratio of Complex IV to Frataxin was used to determine mitochondrial toxicity. DMSO controls were run to determine ratio of Frataxin and Complex IV in control cells. ddC was run as a positive control in the assay.
# [2] = AVA5 HCV replicon cells (sub-genomic CON1, genotype 1b)
# [3] = MT4 cells, 6 days, MTS, read-out: MT-4 (TC50)
# [4] = anti-HCV activity, read-out: EC50
SMILES,"CC50 [1, 2] [nM]",EC50 (HCV) [nM],CC50 [1] [nM],CC50 at 6 days (MT4 Cell Toxicity Assay; [3]) [µM],Mitotoxicity (μM) (HepG2 cells),EC50 (HCV; [4]) [nM],CC50 at 6 days (MT4 Cell Toxicity Assay; MT-4 (TC50) (μM)) [µM]
CNC(=O)c1csc(-c2cn([C@@H]3O[C@H](CO)[C@@H](O)[C@@]3(C)O)c3ncnc(N)c23)c1 [Compound e],20000 to 100000,,,,,,
NC(=S)c1cn(C2O[C@H](CO)[C@@H](O)[C@H]2O)c2ncnc(N)c12 (stereo partly drawn) [Compound p],,< 100,< 1000,< 1,* (up to 20 μM),,
CCCCCCCCCCCCCCCCOCCCOP(=O)(O)OC[C@H]1O[C@@H](n2cc(C#N)c3c(N)ncnc32)[C@H](O)[C@@H]1O [Compound b],< 1000,,,,* (up to 20 μM),< 100,< 1
COC(=N)c1cn(CC2(F)COC(CO)C2O)c2ncnc(N)c12 (stereo not drawn) [Compound m],,,,,,> 5000,20 to 100
COC(=O)[C@H](C)NP(=O)(OC[C@H]1O[C@@H](n2cc(C(N)=S)c3c(N)ncnc32)[C@](C)(O)[C@@H]1O)Oc1ccccc1 (stereo partly drawn) [Compound k],,100 to 1000,1000 to 20000,20 to 100,* (up to 20 μM),,
C[C@@]1(O)[C@H](O)[C@@H](CO)O[C@H]1n1cc(C#N)c2c(N)ncnc21 [Compound j],,,,,** (20-50 μM),100 to 1000,20 to 100
C[C@@]1(F)[C@H](O)[C@@H](CO)O[C@H]1n1cc(-c2cccs2)c2c(N)ncnc21 [Compound f],,,,,* (up to 20 μM),> 5000,
CC(C)=CCNc1ncnc2c1c(/C(N)=N\O)cn2[C@@H]1O[C@H](CO)[C@@H](O)[C@H]1O [Compound a],< 1000,,,,* (up to 20 μM),< 100,> 100
CCCCCCCCCCCCCCCCOCCCOP1(=O)OC[C@H]2O[C@@H](n3cc(C(N)=S)c4c(N)ncnc43)[C@H](O)[C@@H]2O1 (stereo partly drawn) [Compound q],1000 to 20000,,,,,< 100,< 1
[N-]=[N+]=N[C@H]1C(O)C(CO)OC1n1cc(C(N)=S)c2c(N)ncnc21 (stereo partly drawn) [Compound l],1000 to 20000,,,,*** (50-80 μM),100 to 1000,> 100
COC(=O)[C@H](C)NP(=O)(OC[C@H]1O[C@@H](n2cc(C(N)=S)c3c(N)ncnc32)[C@H](O)[C@@H]1O)Oc1ccccc1 (stereo partly drawn) [Compound g],,< 100,< 1000,< 1,,,
C[C@@]1(F)[C@H](O)[C@@H](CO)O[C@H]1n1cc(Br)c2c(N)ncnc21 [Compound c],20000 to 100000,,,,,,
Nc1ncnc2c1c(Br)cn2[C@@H]1O[C@H](CO)[C@@H](O)[C@H]1O [Compound r],,,,,,1000 to 5000,1 to 20
CNC(=O)c1csc(-c2cn([C@@H]3O[C@H](CO)[C@@H](O)[C@H]3O)c3ncnc(N)c23)c1 [Compound o],20000 to 100000,,,,,1000 to 5000,
CCCCCCCCCCCCCCCCOCCCOP(=O)(O)OC[C@H]1O[C@@H](n2cc(C(N)=S)c3c(N)ncnc32)[C@H](O)[C@@H]1O [Compound h],< 1000,,,,,< 100,< 1
C[C@]1(O)C(n2cc(C(N)=S)c3c(N)ncnc32)O[C@H](CO)[C@H]1O (stereo partly drawn) [Compound d],,,,,* (up to 20 μM),1000 to 5000,1 to 20
CC(C)CCNc1ncnc2c1c(C(=N)NO)cn2[C@@H]1O[C@H](CO)[C@@H](O)[C@H]1O [Compound n],1000 to 20000,,,,,1000 to 5000,> 100
